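Tested at 5 concentrations; 48 h exposure; 96-well plates; endpoints linearly interpolated, else capped at highest concentration. TGI: total growth inhibition.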
Assays:
Assay in all cases: growth of human tumour cells (NCI), 48 h
[1] = tested on: UO-31 renal
[2] = tested on: SF-539 CNS
[3] = tested on: CAKI-1 renal
[4] = tested on: HT29 colon
[5] = tested on: HOP-62 NSCLC
[6] = tested on: OVCAR-3 ovarian
[7] = tested on: HL-60(TB) leukemia
[8] = tested on: DLD-1 colon
[9] = tested on: OVCAR-4 ovarian
[10] = tested on: NCI-H460 lung
[11] = tested on: SNB-75 CNS
[12] = tested on: SF-295 CNS
[13] = tested on: HCT-15 colon
[14] = tested on: OVCAR-8 ovarian
[15] = tested on: SNB-78 CNS
[16] = tested on: ACHN renal
[17] = tested on: U251 CNS
[18] = tested on: HCC-2998 colon
[19] = tested on: A549 NSCLC
[20] = tested on: LOX IMVI melanoma
[21] = tested on: SK-MEL-28 melanoma
[22] = tested on: SN12C renal
[23] = tested on: COLO 205 colon
[24] = tested on: MOLT-4 leukemia
[25] = tested on: TK-10 renal
[26] = tested on: K-562 leukemia
[27] = tested on: SK-MEL-2 melanoma
[28] = tested on: M14 melanoma
[29] = tested on: HCT-116 colon
[30] = tested on: SF-268 CNS
[31] = tested on: DMS 114 small cell lung
[32] = tested on: OVCAR-5 ovarian
[33] = tested on: NCI-H522 lung
[34] = tested on: SNB-19 CNS
[35] = tested on: M19-MEL melanoma
[36] = tested on: 786-0 renal
[37] = tested on: A498 renal
[38] = tested on: RXF 393 renal
[39] = tested on: MALME-3M melanoma
[40] = tested on: LXFL 529 NSCLC
[41] = tested on: HOP-18 NSCLC
[42] = tested on: KM20L2 colon
[43] = tested on: IGROV1 ovarian
[44] = tested on: SK-OV-3 ovarian
[45] = tested on: KM12 colon
[46] = tested on: NCI-H23 lung
[47] = tested on: DMS 273 small cell lung
[48] = tested on: CCRF-CEM leukemia
[49] = tested on: NCI-H226 lung
[50] = tested on: SW-620 colon
[51] = tested on: UACC-257 melanoma
[52] = tested on: SK-MEL-5 melanoma
[53] = tested on: SR leukemia
[54] = tested on: HOP-92 NSCLC
[55] = tested on: UACC-62 melanoma
[56] = tested on: RPMI-8226 leukemia
[57] = tested on: EKVX NSCLC

Measured: TGI

CC(=O)Nc1ccc(-c2nnc(SCC(=O)Nc3ccc(Cl)cc3Cl)o2)cc1
44.3 µM: [36]
57.9 µM: [6]
37.4 µM: [52]
84.4 µM: [2]
38.7 µM: [17] | [31]
60.3 µM: [39]
96.6 µM: [11]
54.7 µM: [40]
48.3 µM: [33]
57.5 µM: [22]
66.3 µM: [38]
99 µM: [49]
68.3 µM: [23]
51.9 µM: [34]
not listed: [53] | [54] | [55] | [56] | [57]
> 100 µM: all other assays above

CC(=O)Nc1ccc(-c2nnc(SCC(=O)Nc3ccccc3)o2)cc1
not listed: [18] | [34] | [37] | [57]
> 100 µM: all other assays above

CC(=O)OC12c3ccccc3C1CCCC21OCCCO1 (configuration not stated)
not listed: [7] | [52] | [53] | [54]
> 100 µM: all other assays above

CCC1=C(C(C)=O)[C@@H]2CCCCC(C(=O)OC)[C@@H]2C1=O (some centres not stated)
not listed: [6] | [20] | [53]
> 100 µM: all other assays above

CCOC(=O)N1CCN(P(=O)(Nc2ccc3nc(NC(=O)OC)[nH]c3c2)Oc2ccccc2)CC1 (configuration not stated)
not listed: [2] | [5] | [12] | [34] | [52] | [53] | [57]
> 100 µM: all other assays above

Reference: PubChem BioAssay (NCI)
